Measurements: patent publication US20230126310A1 (priority 2020, published 2023)
Structures can show the parent of a compound that is named as a salt. Where two headings read alike, the source gives them in different places.

Key:
[1] = Compound cytotoxicity against CaCo-2 cells at 48 hours; format: cell-based, Human; conditions: human, CaCo-2 cells
Procedure: The cytotoxicity of the profiled compounds towards CaCo-2 cells at 48 hours was assessed. […] After 48 hours, cytotoxicity was evaluated using both digital phase contrast readout as described above and ATP determination (Cell titre-glo, Promega Corp).

SARS-CoV-2 [2] = assay: microbe, parasite or virus in culture; conditions: Severe acute respiratory syndrome coronavirus 2, Caco-2, 48 h; for inhibition at 10 µM: read-out: % Inh. (% Inhibition of SARS-CoV-2)
SARS-CoV-2 [3] = conditions: for % Inh. (% Inhibition of SARS-CoV-2): 10 µM; for % Inh (% inhibition of virus infection): comparative experiments, Examples 1 and 2
[4] = test system: SARS-CoV-2 (BetaCov/Belgium/GHB-03021/2020); assay: microbe, parasite or virus in culture; format: cell-based
[5] = Table 5, further results of Examples 1 and 2, mean ± spread
[6] = comparative experiments, 48 hours

SMILES: CCCCCCCCN=c1ccn(CCCCCCCCCCn2ccc(=NCCCCCCCC)cc2)cc1 [Octenidine Dihydrochloride]
- CC50 at 48 h [1, 5]: 2.4 ± 0.09 µM
- IC50 (SARS-CoV-2 [2]): 1.14 µM
- inhibition at 10 µM (SARS-CoV-2 [2]): 77%
- IC50 (SARS-CoV-2 [2]; read-out: pIC50 (converted)): 1.15 µM

SMILES: COc1cc2ncnc(Nc3cccc(Br)c3)c2cc1OC.Cl [PD153035 (Hydrochloride)]
- % Inh. (% Inhibition of SARS-CoV-2) (SARS-CoV-2 [3]): 97.2%
- Maximum confluence reached (%) [4]: 54.45%

SMILES: Cn1cc(-c2ccncc2)c(-c2ccc(OCc3ccc4ccccc4n3)cc2)n1 [PF-2545920]
- % Inh. (% Inhibition of SARS-CoV-2) (SARS-CoV-2 [3]): 67.8%
- Maximum confluence reached (%) [4]: 36.73%

SMILES: CNC(=O)c1ccc(C)c(-n2c(C)cc(OCc3ccc(F)cc3F)c(Br)c2=O)c1 [PH-797804]
- CC50 at 48 h [1, 5]: 20 ± 3.1 µM
- IC50 (SARS-CoV-2 [2]): 20.7 µM
- inhibition at 10 µM (SARS-CoV-2 [2]): 81.5%
- IC50 (SARS-CoV-2 [2]; read-out: pIC50 (converted)): 20.4 µM

SMILES: CCCc1c(-c2ccc(O)cc2)nn(-c2ccc(O)cc2)c1-c1ccc(O)cc1 [PPT]
- % Inh. (% Inhibition of SARS-CoV-2) (SARS-CoV-2 [3]): 71.1%
- Maximum confluence reached (%) [4]: 48.2%
- IC50 ([4]; read-out: IC50): 8.3 µM

SMILES: NS(=O)(=O)OC[C@@H]1C[C@@H](n2ccc3c(N[C@H]4CCc5ccccc54)ncnc32)C[C@@H]1O [Pevonedistat hydrochloride]
- CC50 at 48 h [1, 6]: 222 ± 332 µM
- % Inh (% inhibition of virus infection) (SARS-CoV-2 [3]): 75.1%

SMILES: FC(F)(F)c1ccc(CNc2ccc(Cc3c[nH]c4ncc(Cl)cc34)cn2)cn1 [Pexidartinib]
- CC50 at 48 h [1, 5]: 41.5 ± 32.5 µM
- IC50 (SARS-CoV-2 [2]): 5.92 µM
- IC50 (SARS-CoV-2 [2]; read-out: pIC50 (converted)): 5.89 µM

SMILES: CC[C@@H]([C@H](C)O)n1ncn(-c2ccc(N3CCN(c4ccc(OC[C@@H]5CO[C@@](Cn6cncn6)(c6ccc(F)cc6F)C5)cc4)CC3)cc2)c1=O [Posaconazole]
- CC50 at 48 h [1, 5]: 14.6 ± 0.67 µM
- IC50 (SARS-CoV-2 [2]): 2.37 µM
- IC50 (SARS-CoV-2 [2]; read-out: pIC50 (converted)): 2.34 µM

SMILES: CNC(=O)c1cc(Oc2ccc(NC(=O)Nc3ccc(Cl)c(C(F)(F)F)c3)c(F)c2)ccn1 [Regorafenib (BAY 73-4506), Regorafenib]
- CC50 at 48 h [1, 5]: 0.97 ± 0.6 µM
- inhibition at 10 µM (SARS-CoV-2 [2]): 91.5%

SMILES: CC[C@@H](C(=O)[C@@H](C)[C@@H](O)[C@H](C)[C@@H]1O[C@@H]([C@@H](CC)C(=O)O)CC[C@@H]1C)[C@H]1O[C@]2(C=C[C@@H](O)[C@]3(CC[C@@](C)([C@H]4CC[C@](O)(CC)[C@H](C)O4)O3)O2)[C@H](C)C[C@@H]1C [Salinomycin (Procoxacin), Salinomycin]
- inhibition at 10 µM (SARS-CoV-2 [2]): 90.2%
- Emax ([4]; Severe acute respiratory syndrome coronavirus 2, 120 h, read-out: Maximum confluence reached (%)): 34.4%

SMILES: CNC(=O)c1cc(Oc2ccc(NC(=O)Nc3ccc(Cl)c(C(F)(F)F)c3)cc2)ccn1 [Sorafenib Tosylate]
- CC50 at 48 h [1, 5]: 1.17 ± 0.43 µM
- IC50 (SARS-CoV-2 [2]): 1.21 µM
- inhibition at 10 µM (SARS-CoV-2 [2]): 78.7%
- IC50 (SARS-CoV-2 [2]; read-out: pIC50 (converted)): 1.2 µM

SMILES: Nc1nc2nc[nH]c2c(=S)[nH]1 [TIOGUANINE]
- CC50 at 48 h [1, 6]: 2.21 ± 1.48 µM
- % Inh (% inhibition of virus infection) (SARS-CoV-2 [3]): 99.9%

SMILES: CN1CC[C@H](c2c(O)cc(O)c3c(=O)cc(-c4ccccc4Cl)oc23)[C@H](O)C1 [alvocidib]
- CC50 at 48 h [1, 5]: 0.06 µM
- inhibition at 10 µM (SARS-CoV-2 [2]): 87.8%

SMILES: NC(=O)c1nnn(Cc2cc(Cl)c(C(=O)c3ccc(Cl)cc3)c(Cl)c2)c1N [carboxyamidotriazole]
- CC50 at 48 h [1, 6]: 0.11 ± 0.04 µM
- % Inh (% inhibition of virus infection) (SARS-CoV-2 [3]): 135.1%

SMILES: OCCNC1CCCc2c1[nH]c1ccc(-c3ccccc3)cc21 (stereo not shown) [casin]
- % Inh. (% Inhibition of SARS-CoV-2) (SARS-CoV-2 [3]): 71.2%
- Maximum confluence reached (%) [4]: 50.81%

SMILES: CCOc1ccc(/C=C2\NCCc3cc(OCC)c(OCC)cc32)cc1OCC [drotaverine]
- CC50 at 48 h [1, 5]: 9 ± 0.96 µM
- inhibition at 10 µM (SARS-CoV-2 [2]): 93.1%

SMILES: Fc1ccc(C(c2ccc(F)cc2)N2CCN(C/C=C/c3ccccc3)CC2)cc1 [flunarizine]
- CC50 at 48 h [1, 5]: 137 ± 72.3 µM
- inhibition at 10 µM (SARS-CoV-2 [2]): 79.1%

SMILES: CC1=C(CCC(=O)O)c2cc3[nH]c(cc4nc(cc5[nH]c(cc1n2)c(C)c5C(C)O)C(C)=C4C(C)O)c(C)c3CCC(=O)O (stereo not shown) [hematoporphyrin]
- CC50 at 48 h [1, 5]: 160 ± 139 µM
- inhibition at 10 µM (SARS-CoV-2 [2]): 96.8%

SMILES: COC(=O)C[C@](O)(CCCC(C)(C)O)C(=O)O[C@@H]1C(OC)=C[C@]23CCCN2CCc2cc4c(cc2[C@H]13)OCO4 [homoharringtonine]
- CC50 at 48 h [1, 5]: 1.72 ± 1.89 µM
- IC50 (SARS-CoV-2 [2]): 2.25 µM
- inhibition at 10 µM (SARS-CoV-2 [2]): 154%
- IC50 (SARS-CoV-2 [2]; read-out: pIC50 (converted)): 2.24 µM

SMILES: Cc1cccc(C)c1NC(=O)CN1CCN(CCCC(c2ccc(F)cc2)c2ccc(F)cc2)CC1 [lidoflazine]
- CC50 at 48 h [1, 5]: 31.9 ± 11 µM
- IC50 (SARS-CoV-2 [2]): 21.3 µM
- inhibition at 10 µM (SARS-CoV-2 [2]): 95.9%
- IC50 (SARS-CoV-2 [2]; read-out: pIC50 (converted)): 21.4 µM

SMILES: C[C@@H](c1nc(-c2ccc(C#N)cc2)cs1)[C@](O)(Cn1cncn1)c1ccc(F)cc1F [ravuconazole]
- CC50 at 48 h [1, 5]: 12.8 ± 0.84 µM
- IC50 (SARS-CoV-2 [2]): 2 µM
- inhibition at 10 µM (SARS-CoV-2 [2]): 103%
- IC50 (SARS-CoV-2 [2]; read-out: pIC50 (converted)): 2 µM

SMILES: Clc1ccc(Nc2nnc(Cc3ccncc3)c3ccccc23)cc1 [vatalanib]
- CC50 at 48 h [1, 5]: 64.2 ± 57.4 µM
- IC50 (SARS-CoV-2 [2]): 24.4 µM
- inhibition at 10 µM (SARS-CoV-2 [2]): 85.9%
- IC50 (SARS-CoV-2 [2]; read-out: pIC50 (converted)): 24.5 µM
